{"source": "patent US20240226036A1", "about": "(Toragen, Inc., priority 2021, published 2024)", "key": {"[1]": {"system": "B16-OVA tumor cells", "assay": "B16-OVA tumor model in mice", "type": "in vivo, mouse", "details": "for tumor sizes compared to control groups: 10 mg/kg IP once daily, 7 injections starting on day 10; for survival: with anti-PDL1 immunotherapy, mice harboring B16-OVA tumors"}, "[2]": {"system": "4T1 tumor cells", "assay": "4T1 tumor model in mice", "type": "in vivo, mouse", "details": "10 mg/kg IP once daily, 7 injections starting on day 6"}, "[3]": {"system": "AT-84-E7 tumors", "type": "in vivo, mouse", "details": "tumors which do not express E5"}, "[4]": {"system": "E5-positive AT-84-E7", "assay": "Cell surface expression of MHC I (flow cytometry)", "type": "cell-based"}, "[5]": {"system": "B16-OVA cells cocultured with B3Z cells", "assay": "B3Z activation assay", "type": "cell-based", "details": "100 μM, 24 hours before B3Z co-culture", "method": "B16-OVA cells are seeded into a 96-well plate and treated with 100 μM […], […] or racemic rimantadine for 24 hours, prior to addition of B3Z cells. After 24 hours of co-culture, medium is removed and 100 μl of lysis buffer [0.155 mM chlorophenol red β-D-galactopyranoside (CPRG) (Roche), 0.125% Nonidet P-40 Alternative (EMDCalbiochem), and 9 mM MgCl2 (Sigma) in PBS] are added. After incubation for 4 hours at 37° C., the absorbance at 570 nm is determined on a TECAN infinite M200 microplate reader."}, "[6]": {"system": "T cells", "assay": "Proliferation of T cells", "type": "cell-based"}, "[7]": {"system": "Stathmin", "assay": "RTqPCR gene expression of cell cycle proteins", "type": "cell-based", "method": "(§1) Total RNA is extracted using TRIzol Reagent (Invitrogen) and reverse transcribed with qScript cDNA Synthesis Kit (Quanta BioSciences, Beverly, MA) according to the manufacturer's instructions. Quantitative PCR analysis is conducted by using KAPA SYBR […] FAST (KAPA Biosystems, Wilmington, MA) on the 7900HT Fast Real-Time PCR System (Applied Biosystems, Foster City, CA)."}, "[8]": {"system": "Tau", "assay": "RTqPCR gene expression of cell cycle proteins", "type": "cell-based", "method": "as §1"}, "[9]": {"system": "cell lines engineered to express HPV16 E5", "assay": "Cell cycle arrest in cell lines engineered to express HPV16 E5", "type": "cell-based, murine and human", "method": "(§2) Cell cycle progression was analyzed on the basis of BrdU incorporation following […] cell staining with BrdU-APC and 7-AAD using BD Pharmingen BrdU Flow Kit. (BD, Franklin Lakes, NJ) according to the manufacture's protocol. Cells are analyzed using flow cytometry. Cell proliferation is assessed by using MTT [3-(4,5-dimethylthiazol-2-yl)-2,5-diphenyltetrazolium bromide]. First, cells are seeded in 96-well plate and cultured for 2-3 days. Next, culture media is replaced with fresh media containing 0.5 mg/ml of MTT (Sigma) and the plates are incubated for 4 hours at 37° C. Then, purple formazan crystals are dissolved in lysis buffer (4 mM HCl and 0.1% NP-40 in isopropanol) and the absorbance is recorded on a TECAN infiniteM200 microplate reader (Tecan, Mannedorf, Switzerland) at a wavelength of 570 nm with absorbance at 650 nm as reference."}, "[10]": {"system": "glutamate, GABA, dopamine receptors", "from_the_text": "Next, a series of SPECT analyses as described in Schramm, N., et al. (2000).\nThe SPECT analyses comprise of treatment of the mice with radioligands specific to each receptor. For example, [^123I] IBZM has been documented to have a high affinity for the D2/3 dopamine receptor."}, "[11]": {"biological_target": "M2 channel pore (Influenza A virus, UniProt P06821)", "sequence (P06821 whole entry)": "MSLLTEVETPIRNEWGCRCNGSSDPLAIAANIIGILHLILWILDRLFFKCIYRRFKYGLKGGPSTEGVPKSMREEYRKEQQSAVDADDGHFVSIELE", "details": "one study; other studies found no difference; cited from earlier work"}, "[12]": {"system": "CAL-27 cells", "assay": "Example 6 proliferation in vitro (MTT)", "type": "cell-based, human", "details": "0-500 μM, 24 or 48 hours", "method": "On day 1, CAL-27 cells were seeded in a 96-well plate (2-4×10^3 cells/well, medium 100 μl/well) and left overnight to allow the cells to attach to the plate. On day 2, varying concentrations of rimantadine (0 μM, 100 μM, 250 μM, or 500 μM) were added to the cells and allowed to incubate for 24 hours or 48 hours. On either day 3 or 4, the culture media was aspirated, and 100 μl/well of MTT solution (comprising an MTT concentration of 0.5 mg/ml; formed by dilution of thiazolyl blue tetrazolium bromide solution (SIGMA, Cat #M2128) with stock solution (5 mg/ml in PBS (−20° C.)) was added to the culture media. The cells were incubated in a CO2 incubator at 37° C. for 3 hours, and the MTT solution was aspirated. 100 μl/well of DMSO was then added and the cells were incubated for about 5 minutes. A OD570 nm (Ref 650 nm) was then read. Results of the experiment are shown in FIG. 2."}, "[13]": {"biological_target": "NR1/NR2B ionotropic receptor (Homo sapiens, UniProt Q05586+Q13224)", "sequence (Q13224 27-1484, other chains not shown)": "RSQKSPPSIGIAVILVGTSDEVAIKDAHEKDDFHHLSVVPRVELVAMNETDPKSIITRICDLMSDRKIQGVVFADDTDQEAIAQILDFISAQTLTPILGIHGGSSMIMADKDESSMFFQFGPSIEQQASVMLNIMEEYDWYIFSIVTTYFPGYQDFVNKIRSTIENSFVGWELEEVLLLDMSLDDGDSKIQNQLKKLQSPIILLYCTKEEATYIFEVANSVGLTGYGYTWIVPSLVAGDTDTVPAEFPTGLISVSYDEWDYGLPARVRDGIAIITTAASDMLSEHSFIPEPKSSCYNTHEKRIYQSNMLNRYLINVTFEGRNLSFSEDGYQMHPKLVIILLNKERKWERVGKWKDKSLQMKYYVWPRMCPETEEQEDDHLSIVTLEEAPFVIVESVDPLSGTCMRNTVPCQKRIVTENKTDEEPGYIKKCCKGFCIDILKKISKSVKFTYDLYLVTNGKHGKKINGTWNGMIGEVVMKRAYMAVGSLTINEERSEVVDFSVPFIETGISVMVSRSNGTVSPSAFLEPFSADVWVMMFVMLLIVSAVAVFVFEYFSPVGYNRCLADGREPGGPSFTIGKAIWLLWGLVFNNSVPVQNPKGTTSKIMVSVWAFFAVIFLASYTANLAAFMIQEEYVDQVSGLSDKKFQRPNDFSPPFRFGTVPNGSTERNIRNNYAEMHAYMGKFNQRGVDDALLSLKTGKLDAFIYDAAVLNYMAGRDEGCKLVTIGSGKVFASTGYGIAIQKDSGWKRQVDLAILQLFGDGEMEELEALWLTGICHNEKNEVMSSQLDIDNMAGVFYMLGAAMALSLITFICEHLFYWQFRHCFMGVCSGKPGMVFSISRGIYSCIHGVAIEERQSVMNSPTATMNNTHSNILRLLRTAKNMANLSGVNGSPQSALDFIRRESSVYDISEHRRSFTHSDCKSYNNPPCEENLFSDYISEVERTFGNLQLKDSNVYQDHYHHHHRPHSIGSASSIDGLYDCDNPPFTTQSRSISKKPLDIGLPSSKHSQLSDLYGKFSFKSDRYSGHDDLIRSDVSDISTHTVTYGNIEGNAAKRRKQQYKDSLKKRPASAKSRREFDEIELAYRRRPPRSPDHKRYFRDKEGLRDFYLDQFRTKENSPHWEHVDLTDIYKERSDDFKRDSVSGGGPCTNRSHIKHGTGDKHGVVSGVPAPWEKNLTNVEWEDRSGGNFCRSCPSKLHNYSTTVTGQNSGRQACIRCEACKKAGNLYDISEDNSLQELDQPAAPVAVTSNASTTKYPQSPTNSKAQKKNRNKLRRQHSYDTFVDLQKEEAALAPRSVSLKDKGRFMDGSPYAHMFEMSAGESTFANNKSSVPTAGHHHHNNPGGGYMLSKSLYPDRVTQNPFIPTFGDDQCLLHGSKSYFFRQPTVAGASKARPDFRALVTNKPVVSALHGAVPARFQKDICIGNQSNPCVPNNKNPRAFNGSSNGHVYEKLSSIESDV", "assay": "ScreenPatch assay (IonWorks Barracuda electrophysiology) on NR1/NR2B", "details": "refers to Table 2"}, "[14]": {"system": "NMDA receptors", "assay": "ScreenPatch two-application protocol, agonist and antagonist format", "type": "cell-based, human", "details": "first application; data not shown", "method": "A two-application protocol was employed.\nAgonist Format: The potential agonist effect of the test articles and the positive control antagonist, amantadine, were examined during first application.\nTo access open channel block type of inhibition, peak and steady state current amplitudes (between 4th and 5th seconds after agonist application) were measured (PCA and SSC respectively)."}, "[15]": {"system": "D2/3 dopamine receptor", "details": "documented; cited from earlier work"}, "[16]": {"system": "CAL-27, CAL-33, and SCC-47 squamous cell carcinoma cell lines", "assay": "BrdU incorporation assays in human head and neck tumor lines", "type": "cell-based", "details": "rimantadine alone; CAL-27, CAL-33, SCC-47", "method": "as §2"}, "[17]": {"system": "CAL-27, CAL-33, and SCC-47 squamous cell carcinoma cell lines", "assay": "Proliferation assays in human head and neck tumor lines", "type": "cell-based", "details": "rimantadine alone; CAL-27, CAL-33, SCC-47", "method": "as §2"}}, "note": "Read-outs that look alike come from different tables or passages of the source.", "data": [{"smiles": "C[C@@H](N)C12CC3CC(CC(C3)C1)C2", "note": "[2-R rimantadine]", "values": [{"measurement": "tumor sizes compared to control groups", "setting": "[1]", "value": "statistically significant decreases"}, {"measurement": "survival", "setting": "[1]", "value": "significant improvement"}, {"measurement": "tumor sizes compared to control groups", "setting": "[2]", "value": "statistically significant decreases"}, {"measurement": "anti-tumor effect", "setting": "[3]", "value": "decreased"}, {"measurement": "cell surface expression of MHC I", "setting": "[4]", "value": "restored"}, {"measurement": "increase in recognition of model tumor antigen by B3Z cells", "setting": "[5]", "value": 3, "unit": "fold"}, {"measurement": "proliferation of T cells", "setting": "[6]", "value": "no significant effects"}, {"measurement": "gene expression of Stathmin", "setting": "[7]", "value": "significant decreases"}, {"measurement": "gene expression of Tau", "setting": "[8]", "value": "Decreases"}, {"measurement": "cell cycle arrest", "setting": "[9]", "value": "induce cell cycle arrest"}, {"measurement": "incidence of central nervous system adverse effects, compared with the other enantiomer", "setting": "[10]; Example 4", "value": "higher incidence"}, {"measurement": "affinity for M2 channel pore compared with the S-enantiomer", "setting": "[11]", "value": "greater affinity"}]}, {"smiles": "C[C@H](N)C12CC3CC(CC(C3)C1)C2", "note": "[2-S rimantadine]", "values": [{"measurement": "tumor sizes compared to control groups", "setting": "[1]", "value": "statistically significant decreases"}, {"measurement": "survival", "setting": "[1]", "value": "significant improvement"}, {"measurement": "tumor sizes compared to control groups", "setting": "[2]", "value": "statistically significant decreases"}, {"measurement": "anti-tumor effect", "setting": "[3]", "value": "decreased"}, {"measurement": "cell surface expression of MHC I", "setting": "[4]", "value": "restored"}, {"measurement": "increase in recognition of model tumor antigen by B3Z cells", "setting": "[5]", "value": 3, "unit": "fold"}, {"measurement": "proliferation of T cells", "setting": "[6]", "value": "no significant effects"}, {"measurement": "gene expression of Stathmin", "setting": "[7]", "value": "significant decreases"}, {"measurement": "gene expression of Tau", "setting": "[8]", "value": "Decreases"}, {"measurement": "cell cycle arrest", "setting": "[9]", "value": "induce cell cycle arrest"}, {"measurement": "toxicity as a treatment for cancer as compared to 2-R rimantadine", "setting": "[10]; Example 4", "value": "significantly less toxic"}, {"measurement": "incidence of central nervous system adverse effects, compared with the other enantiomer", "setting": "[10]; Example 5", "value": "higher incidence"}, {"measurement": "toxicity as a treatment for cancer as compared to 2-R rimantadine", "setting": "[10]; Example 5", "value": "significantly less toxic"}, {"measurement": "cancer cell proliferation as compared to R-rimantadine or racemic rimantadine", "setting": "[12]", "value": "enhanced or equivalent"}, {"measurement": "inhibition of NR2B subunits as compared to 2-R rimantadine and racemic rimantadine", "setting": "[13]", "value": "to a lesser degree"}]}, {"smiles": "NC12CC3CC(CC(C3)C1)C2", "note": "[Amantadine, amantadine]", "values": [{"measurement": "agonist effect: activation of NMDA receptors", "setting": "[14]", "value": "Neither test articles nor amantadine had produced significant activation"}]}, {"smiles": "CCN1CCC[C@H]1CNC(=O)c1c(OC)ccc([123I])c1O", "note": "[[^123I] IBZM]", "values": [{"measurement": "affinity for the D2/3 dopamine receptor", "setting": "[15]", "value": "high affinity"}]}, {"smiles": "CC(N)C12CC3CC(CC(C3)C1)C2", "note": "(stereo not shown) [rimantadine]", "values": [{"measurement": "cell cycle arrest", "setting": "[16]", "value": "Significant cell cycle arrest"}, {"measurement": "proliferation", "setting": "[17]", "value": "decreased"}]}]}
